What all share (format): functional
Experiment [1] deals with Mus musculus. In words: Percent of tumor growth inhibition ratio (TGIR)of the compound administered intravenously at dose 5 mg/kg (on day10, 14, 18 ) in subcutaneously infected BDF1 mice on day 20. Particulars: route intravenous.
Experiment [2] has as its system Mus musculus. Kind of experiment: Percent of tumor growth inhibition ratio (TGIR)of the compound administered intravenously at dose 5 mg/kg (on day 1) in subcutaneously infected BDF1 mice on day 11. Particulars: route intravenous.
Experiment [3] relates to Mus musculus. In words: Percent of tumor growth inhibition ratio (TGIR)of the compound administered intraperitoneally at dose 5 mg/kg (on day 7, 11,15) in subcutaneously infected BDF1 mice on day 9. Particulars: route subcutaneous.
Experiment [4] deals with Mus musculus. Kind of experiment: Percent of tumor growth inhibition ratio (TGIR)of the compound administered intravenously at dose 100 ug/kg(on day 7, 11,15) in subcutaneously infected BDF1 mice on day 16.
For experiment [5], the system named is Mus musculus. Kind of experiment: Percent of tumor growth inhibition ratio (TGIR)of the compound administered intravenously at dose 5 mg/kg (on day 1) in subcutaneously infected BDF1 mice on day 20. Particulars: route intravenous.
Experiment [6] deals with Mus musculus. Kind of experiment: Percent of tumor growth inhibition ratio (TGIR)of the compound administered intravenously at dose 5 mg/kg (on day1,5,9) in subcutaneously infected BDF1 mice on day 16. As to conditions: route intravenous.
The subject of experiment [7] is Mus musculus. In words: Percent of tumor growth inhibition ratio (TGIR)of the compound administered intravenously at dose 5 mg/kg (on day 10, 14, 18 ) in subcutaneously infected BDF1 mice on day 12. Particulars: route intravenous.
The test system of experiment [8] is Mus musculus. In words: Percent of tumor growth inhibition ratio (TGIR)of the compound administered intravenously at dose 5 mg/kg (on day 1) in subcutaneously infected BDF1 mice on day 18. As to conditions: route intravenous.
Experiment [9] deals with Mus musculus. In words: Percent of tumor growth inhibition ratio (TGIR)of the compound administered intravenously at dose 5 mg/kg (on day 1) in subcutaneously infected BDF1 mice on day 22. Particulars: route intravenous.
Experiment [10] has as its system Mus musculus. In words: Percent of tumor growth inhibition ratio (TGIR)of the compound administered intravenously at dose 5 mg/kg (on day 10, 14, 18 ) in subcutaneously infected BDF1 mice on day 16. As to conditions: route intravenous.
Experiment [11] relates to Mus musculus. In words: Percent of tumor growth inhibition ratio (TGIR)of the compound administered intravenously at dose 5 mg/kg (on day 1,5,9) in subcutaneously infected BDF1 mice on day 20. As to conditions: route intravenous.
The test system of experiment [12] is Mus musculus. Kind of experiment: Percent of tumor growth inhibition ratio (TGIR)of the compound administered intraperitoneally at dose 100 ug/kg(on day 1) in subcutaneously infected BDF1 mice on day 12.
For experiment [13], the system named is Mus musculus. In words: Percent of tumor growth inhibition ratio (TGIR)of the compound administered intraperitoneally at dose 100 ug/kg(on day 1) in subcutaneously infected BDF1 mice on day 13.
Experiment [14] concerns Mus musculus. Kind of experiment: Percent of tumor growth inhibition ratio (TGIR)of the compound administered intraperitoneally at dose 5 mg/kg (on day 7, 11,15) in subcutaneously infected BDF1 mice on day 16. Particulars: route subcutaneous.
The test system of experiment [15] is Mus musculus. In words: Percent of tumor growth inhibition ratio (TGIR)of the compound administered intraperitoneally at dose 100 ug/kg(on day 1) in subcutaneously infected BDF1 mice on day 20.
The test system of experiment [16] is Mus musculus. In words: Percent of tumor growth inhibition ratio (TGIR)of the compound administered intraperitoneally at dose 5 mg/kg (on day 1) in subcutaneously infected BDF1 mice on day 10. Particulars: route subcutaneous.
Experiment [17] has as its system Mus musculus. In words: Percent of tumor growth inhibition ratio (TGIR)of the compound administered intravenously at dose 5 mg/kg (on day 1,5,9) in subcutaneously infected BDF1 mice on day 12. Particulars: route intravenous.
Experiment [18] deals with Mus musculus. Kind of experiment: Percent of tumor growth inhibition ratio (TGIR)of the compound administered intravenously at dose 5 mg/kg (on day 1,5,9) in subcutaneously infected BDF1 mice on day 8. As to conditions: route intravenous.
Experiment [19] has as its system Mus musculus. Kind of experiment: Percent of tumor growth inhibition ratio (TGIR)of the compound administered intravenously at dose 5 mg/kg (on day 1) in subcutaneously infected BDF1 mice on day 14. Particulars: route intravenous.

In the case of `CO[C@@]12[C@H](COC(N)=O)C3=C(C(=O)C(C)=C(N)C3=O)N1C[C@@H]1N[C@@H]12` [MITOMYCIN], the TGIR in the experiment with Mus musculus [1] amounted to 68.1%; with Mus musculus [2], 8.6%; with Mus musculus [3], 35.2%; with Mus musculus [4] it was 80%; with Mus musculus [5], 75.1%; with Mus musculus [6] it was 86%. The TGIR turned out to be 38.8% in the experiment on Mus musculus [7]; 51.2% in the experiment on Mus musculus [8]; 60% in the experiment on Mus musculus [9]; 52.8% in the experiment with Mus musculus [10]; 83.2% with Mus musculus [11]; 53.9% in the experiment with Mus musculus [12]. For the same compound, the TGIR in the experiment on Mus musculus [13] was 85.1%; with Mus musculus [14], 59.7%; in the experiment on Mus musculus [15], 48.6%; in the experiment with Mus musculus [16], 80.1%; in the experiment with Mus musculus [17] it was 89.7%; in the experiment on Mus musculus [18] it was 90%. In addition, the TGIR in the experiment on Mus musculus [19] came out at 29.7%.

The values are drawn from ChEMBL document CHEMBL1128864, “Antitumor activities of -, -monogalactosylceramides and four diastereomers of an -galactosylceramide” (1995).
